{"source": "patent US20080311657A1", "about": "“Killing Human Lymphoma and Leukemia Cancer Cells and Tcr-Activated Normal Human Cells By Dopamine D1r Agonists” (priority 2005, published 2008)", "key": {"[1]": {"system": "Human T-cell leukemia (Jurkat) cells", "test": "Number of living cells counted by flow cytometry (FACSort) after D1R agonist", "type": "cell-based", "conditions": "added four times during 1 hour, counted 3 days later", "protocol": "Afterwards, the microtiter plates were placed in an incubator (37° C., humidified incubator, 5% CO2) for 3 days. Then, the number of living cells was evaluated by flow cytometry (the cells were counted by FACsort for a fixed time length of 1 min, in which 100 microliter of each sample was tested). Of note, A 77636 hydrochloride is an orally-active D1R agonist, according to the manufacturer (Tocris).\nAfterwards, the microtiter plates were placed in an incubator (37° C., humidified incubator, 5% CO2) for 3 days. Then, the number of living cells was evaluated by flow cytometry (the cells were counted by FACsort for a fixed time length of 1 min, in which 100 microliter of each sample was tested).\n(§1) The experiment was designed to test the effect of exposing the cells to the D1R agonist for 1 min, 15 min, 1 hr or 72 hr. Thus, 1 min, or 15 min or 1 hr after the addition of the D1R agonist, the corresponding cells were transferred into tubes, centrifuged (1000 rpm for 10 min); and the supernatant was removed. […] Thus, its medium was not replaced, and these cells and remained as such in the incubator for 72 hr. At the end of the 72 hr incubation, the number of living cells was evaluated by flow cytometry (the cells were counted by FACsort for a fixed time length of 1 min, in which 100 microliter of each sample was tested).\n(§2) Cell viability was tested afterwards.\n(§3) For this purpose, the Jurkat T-cell leukemia line, the HuT-78 human T-lymphoma (cutaneous “Sezary” T-lymphoma) line, and the K-562 human Chronic-Myeloid Leukemia (CML) and Daudi Human B-lymphoma (Burkitt's lymphoma) lines were seeded in tissue culture wells (0.5 million cells/0.5 ml/well).\n(§4) Cell survival/death was evaluated 3 days later by counting the number of living cells, using flow cytometry."}, "[2]": {"system": "Human chronic myelogenous leukemia cells (CML) (K-562)", "test": "Number of living cells counted by flow cytometry (FACSort) after D1R agonist", "type": "cell-based", "conditions": "added four times during 1 hour, counted 3 days later", "protocol": "(§5) Human chronic myelogenous leukemia cells (CML) (K-562) were seeded in 96 well plates (0.5 ml per well of 0.5 million cells/ml) and A 77636 hydrochloride was added and diluted 1:00 into the wells at starting concentrations of 10^−1M-10^−4M, so that the final concentration range tested was 10^−3M-10^−6M. Afterwards, the microtiter plates were placed in an incubator (37° C., humidified incubator, 5% CO2) for 3 days. Then, the number of living cells was evaluated by flow cytometry (the cells were counted by FACsort for a fixed time length of 1 min, in which 100 microliter of each sample was tested).\nas §5, with “68930” for “77636”\nas §5, with “SKF 38393 hydrobromide” for “A 77636 hydrochloride”\nas §1, with “Human chronic myelogenous leukemia cells (CML) (K-562) were seeded in 96 well plates (0.5 ml per well of 0.5 million cells/ml) and A 77636 hydrochloride was added and diluted 1:00 into the wells, at a fixed starting concentration of 10^−2M, so that the final concentration tested was 10^−4M. The” for “The”, “min),” for “min);”\nas §2, §3, §4\nThe effect of dopamine itself (that can of course activate all its D1R-5 receptors) was also tested. All of these molecules were tested at a similar concentration (10^−4 M). […] The specificity and restriction of the effect to the D1R is also seen in Tables 7 and 8."}, "[3]": {"system": "Human Burkitt's B-Cell Lymphoma (Daudi)", "test": "Cell death by LDH release (CytoTox 96)", "type": "cell-based", "conditions": "FDM 10^−4M-10^−12M, added four times during 1 hour", "protocol": "as §2"}, "[4]": {"system": "Human T-cell leukemia (Jurkat)", "test": "Cell death by LDH release (CytoTox 96)", "type": "cell-based", "conditions": "FDM 10^−4M-10^−12M, added four times during 1 hour", "protocol": "as §2"}, "[5]": {"system": "TCR-activated normal human T-cells", "test": "Cell death by LDH release (CytoTox 96)", "type": "cell-based", "conditions": "FDM 10^−4M-10^−10M, added four times during 1 hour; methanesulfonate", "protocol": "Non-tissue culture treated 24-well plates (Falcon, Franklin Lakes, N.J.) were coated overnight at 4° C. with anti-CD3 and anti-CD28 monoclonal antibodies (mabs) (BD Pharmingen, San Jose, Calif.); ([…] in PBS). The wells were then washed with PBS, blocked for 1 hour at 37° C. (PBS/1% BSA), and washed again. The freshly purified normal human T-cells were resuspended in their respective fresh media and seeded in the anti-CD3/CD28 coated wells (1×10^6 per well), and the plates were incubated for 72 hours (37° C., humidified incubator, 5% CO2). Then, the cells and their media were collected from each well, transferred into 50 ml tubes, centrifuged (1200 rpm, 10 minutes) and both the TCR-activated cells and their culture media were collected and transferred into clean separate tubes.\nas §2"}, "[6]": {"system": "Human cutaneous Sezary T-lymphoma cells (HuT-78)", "test": "Number of living cells counted by flow cytometry (FACSort) after D1R agonist", "type": "cell-based", "conditions": "added four times during 1 hour, counted 3 days later"}, "[7]": {"system": "Human T-Cell Lymphoma (HuT-78)", "test": "Cell death by LDH release (CytoTox 96)", "type": "cell-based", "conditions": "FDM 10^−4M-10^−12M, added four times during 1 hour"}, "[8]": {"system": "Human Chronic Myeloid Leukemia (CML, K-562)", "test": "Cell death by LDH release (CytoTox 96)", "type": "cell-based", "conditions": "FDM 10^−4M-10^−12M, added four times during 1 hour"}, "[9]": {"conditions": "patients receiving the 48 hour FDA-approved infusion; cited from earlier work"}}, "note": "Values joined by “and” are separate entries in the source; they are usually repeats but may differ in a detail not shown here. Identical values can stand only once. “Also recorded” adds a separate entry of the source.", "data": [{"smiles": "CS(=O)(=O)O.Oc1ccc(C2CNCCc3c2cc(O)c(O)c3Cl)cc1", "note": "(stereo not drawn) [FDM, 6-chloro-2,3,4,5-tetrahydro-1-(4-hydroxyphenyl)-[1H]-3-benzazepine-7,8-diol methanesulfonate]", "values": [{"measurement": "% Dead Cells", "setting": "[1]; FDM 10^−4M", "value": "~100", "unit": "%"}, {"measurement": "No. of Living Cells", "setting": "[1]; FDM 10^−4M", "value": 4}, {"measurement": "% Dead Cells", "setting": "[1]; FDM 10^−6M", "value": 18, "unit": "%"}, {"measurement": "No. of Living Cells", "setting": "[1]; FDM 10^−6M", "value": 15938}, {"measurement": "No. of Living Cells", "setting": "[1]; FDM 10^−8M", "value": 7451}, {"measurement": "% Dead Cells", "setting": "[1]; FDM 10^−8M, methanesulfonate", "value": 62, "unit": "%"}, {"measurement": "% Dead Cells", "setting": "[1]; FDM 10^−10M", "value": 52, "unit": "%"}, {"measurement": "No. of Living Cells", "setting": "[1]; FDM 10^−10M", "value": 9472}, {"measurement": "% Dead Cells", "setting": "[1]; FDM 10^−12M", "value": 46, "unit": "%"}, {"measurement": "No. of Living Cells", "setting": "[1]; FDM 10^−12M", "value": 10568}, {"measurement": "% Dead Cells", "setting": "[2]; FDM 10^−4M", "value": 100, "unit": "%"}, {"measurement": "No. of Living Cells", "setting": "[2]; FDM 10^−4M", "value": 21}, {"measurement": "% Dead Cells", "setting": "[2]; FDM 10^−6M", "value": 34, "unit": "%"}, {"measurement": "No. of Living Cells", "setting": "[2]; FDM 10^−6M", "value": 18680}, {"measurement": "No. of Living Cells", "setting": "[2]; FDM 10^−8M", "value": 21137}, {"measurement": "% Dead Cells", "setting": "[2]; FDM 10^−8M, methanesulfonate", "value": "25% and 26%"}, {"measurement": "% Dead Cells", "setting": "[2]; FDM 10^−10M", "value": 25, "unit": "%"}, {"measurement": "No. of Living Cells", "setting": "[2]; FDM 10^−10M", "value": 21476}, {"measurement": "% Dead Cells", "setting": "[2]; FDM 10^−12M", "value": 33, "unit": "%"}, {"measurement": "No. of Living Cells", "setting": "[2]; FDM 10^−12M", "value": 19250}, {"measurement": "Killing evident by LDH release (FIG. 5), in words", "setting": "[3]", "value": "kills human Burkitt's B-lymphoma in a dose dependent manner"}, {"measurement": "Killing evident by LDH release (FIG. 2), in words", "setting": "[4]", "value": "kills human T-cell leukemia in a dose dependent manner"}, {"measurement": "Killing evident by LDH release (FIG. 8), in words", "setting": "[5]", "value": "marked death; also recorded: kills human TCR-activated T-cells, in a dose dependent manner"}, {"measurement": "% Dead Cells", "setting": "[6]; FDM 10^−4M", "value": 99, "unit": "%"}, {"measurement": "No. of Living Cells", "setting": "[6]; FDM 10^−4M", "value": 213}, {"measurement": "% Dead Cells", "setting": "[6]; FDM 10^−6M", "value": 28, "unit": "%"}, {"measurement": "No. of Living Cells", "setting": "[6]; FDM 10^−6M", "value": 17023}, {"measurement": "No. of Living Cells", "setting": "[6]; FDM 10^−8M", "value": 16080}, {"measurement": "% Dead Cells", "setting": "[6]; FDM 10^−8M, methanesulfonate", "value": 32, "unit": "%"}, {"measurement": "% Dead Cells", "setting": "[6]; FDM 10^−10M", "value": 38, "unit": "%"}, {"measurement": "No. of Living Cells", "setting": "[6]; FDM 10^−10M", "value": 14728}, {"measurement": "% Dead Cells", "setting": "[6]; FDM 10^−12M", "value": 46, "unit": "%"}, {"measurement": "No. of Living Cells", "setting": "[6]; FDM 10^−12M", "value": 12662}, {"measurement": "Killing evident by LDH release (FIG. 3), in words", "setting": "[7]", "value": "kills human cutaneous Sezary T-cell lymphoma in a dose dependent manner"}, {"measurement": "Killing evident by LDH release (FIG. 4), in words", "setting": "[8]", "value": "kills human chronic myelogenous leukemia (CML) in a dose dependent manner"}, {"measurement": "Approximate steady state concentration in the circulation", "setting": "[9]", "value": "~10^−8 M"}]}]}
